{
  "source": "patent US9662308B2",
  "about": "“Orally bioavailable pentamidine prodrugs for the treatment of diseases” (Dritte Patentportfolio Beteiligungsgesellschaft mbH & Co. KG, priority 2008, dated 2017)",
  "key": {"[1]": {"assay": "Solubility in 50 mM phosphate buffer (HPLC)", "conditions": "for solubility at 20 min: 50 mM phosphate buffer, thermodynamic from solid", "procedure": "[…] Subsequently, the undissolved part was removed by centrifugation (12,000 rpm) and the samples were immediately measured by HPLC. The evaluation of the solubility ensued via a calibration of N,N′-bis(succinyloxy)pentamidine (1) in DMSO.\nSolubilities were determined analogously to the method described for compound 1."}, "[2]": {"procedure": "Samples were stored at room temperature and 70° C. over a defined period and examined for analyzing the prodrug (1) storage stability. The storage period was 6 months for the room temperature samples, 7 days for the 70° C. samples. The prodrug (1) content was determined by means of HPLC. For this purpose, the samples were dissolved in a mixture of equal parts of methanol and phosphate buffer (20 mM, pH 7.4) and immediately measured. The HPLC method corresponds to the method described under “Characterization of the prodrugs”."}, "[3]": {"procedure": "Further analyses were conducted with human and murine plasma. 900 μl of the plasma was mixed with 100 μl of a 2 mM solution of N,N′-bis(succinyloxy)pentamidine (1). The final concentration of N,N′-bis(succinyloxy)pentamidine (1) was thus 0.2 mM. The samples were incubated at 37° C. in a shaking water bath and samples were taken after 0, 15, 30, 45, 60, 75, 90, 105 and 120 min. For this purpose, 100 μl was drawn in each case and mixed with 100 μl acetonitrile. The samples were shaken, centrifuged for 5 min and the supernatant was measured by HPLC.\n(§1) The stability analyses were evaluated by means of the following HPLC method: […]", "remark": "listed apart in the source"}, "[4]": {"procedure": "For the stability analyses, a 0.1 mM solution of N,N′-bis(succinyloxy)pentamidine (1) was prepared in a 50 mM potassium phosphate buffer/DMSO (90/10, vol/vol). The analysis took place at pH values of 2.0, 7.4 and 9.0. One sample was taken and immediately analyzed by HPLC every 15 min over a period of 150 min.\nas §1", "remark": "listed apart in the source"}, "[5]": {"test_system": "9000×g supernatants, microsomes and mitochondria of human liver and kidney tissues", "format": "in vitro ADME", "conditions": "pH 6.3", "procedure": "The activation of the prodrug was determined in vitro by means of subcellular enzyme preparations. 9000×g of supernatants, microsomes and mitochondria of human and porcine liver and kidney tissues were used as the enzyme preparations. The incubation batches were composed of […] prodrug, 1 mM NADH, 1 U esterase and 0.3 mg enzyme preparation dissolved in 150 μ100 mM phosphate buffer, pH 6.3. The incubation took place over 20 min in a shaking water bath at 37° C. The incubation was terminated by adding 150 μl of acetonitrile. The samples were subsequently shaken for 10 min and the precipitated protein was removed by centrifuging at 10,000 RPM for 15 min. The supernatant was measured by means of HPLC."}, "[6]": {"conditions": "rat, in vivo"}, "[7]": {"test_system": "trypanosomes", "conditions": "cited from earlier work"}, "[8]": {"test_system": "leishmania", "conditions": "cited from earlier work"}, "[9]": {"test_system": "plasmodia", "conditions": "cited from earlier work"}},
  "note": "Like-named read-outs stand apart in the source and are kept apart here.",
  "data": [
    {"molecule": "CC(=O)ON=C(N)c1ccc(OCCCCCOc2ccc(C(N)=NOC(C)=O)cc2)cc1", "note": "[N,N′-bis(acetoxy)pentamidine]", "values": [
      {"measurement": "Solubility", "setting": "[1]; pH 2.0", "value": "14 ± 8", "unit": "µM"},
      {"measurement": "Solubility", "setting": "[1]; pH 7.4", "value": "2 ± 1", "unit": "µM"},
      {"measurement": "Solubility", "setting": "[1]; pH 9.0", "value": "3 ± 2", "unit": "µM"}
    ]},
    {"molecule": "N=C(N)c1ccc(OCCCCCOc2ccc(C(N)=NO)cc2)cc1", "note": "[Pentamidine monoamidoxime]", "values": [
      {"measurement": "Solubility", "setting": "[1]; pH 2.0", "value": "22285 ± 1244", "unit": "µM"},
      {"measurement": "Solubility", "setting": "[1]; pH 7.4", "value": "1370 ± 291", "unit": "µM"},
      {"measurement": "Solubility", "setting": "[1]; pH 9.0", "value": "1257 ± 40", "unit": "µM"}
    ]},
    {"molecule": "NC(=NO)c1ccc(OCCCCCOc2ccc(C(N)=NO)cc2)cc1", "note": "[N,N′-bis(dihydroxy)pentamidine]", "values": [
      {"measurement": "Solubility", "setting": "[1]; pH 2.0", "value": ">35000", "unit": "µM"},
      {"measurement": "Solubility", "setting": "[1]; pH 7.4", "value": "95 ± 8", "unit": "µM"},
      {"measurement": "Solubility", "setting": "[1]; pH 9.0", "value": "21 ± 3", "unit": "µM"}
    ]},
    {"molecule": "CON=C(N)c1ccc(OCCCCCOc2ccc(C(N)=NOC)cc2)cc1", "note": "[N,N′-bis(methoxy)pentamidine]", "values": [
      {"measurement": "Solubility", "setting": "[1]; pH 2.0", "value": "1304 ± 28", "unit": "µM"},
      {"measurement": "Solubility", "setting": "[1]; pH 7.4", "value": "8 ± 1", "unit": "µM"},
      {"measurement": "Solubility", "setting": "[1]; pH 9.0", "value": "10 ± 2", "unit": "µM"}
    ]},
    {"molecule": "N=C(NOC(=O)CCC(=O)O)c1ccc(OCCCCCOc2ccc(C(=N)NOC(=O)CCC(=O)O)cc2)cc1", "note": "[N,N′-bis(succinyloxy)pentamidine (1), 4,4′-Pentamethylendioxy-bis-[N-(carboxypropionyloxy)]benzamidine]", "values": [
      {"measurement": "content pentamidine diamidoxime(3)", "setting": "[2]; 70° C., 0 days", "value": "0.4 ± 0.01", "unit": "% area %"},
      {"measurement": "content prodrug (1)", "setting": "[2]; 70° C., 0 days", "value": 98.4, "unit": "area %"},
      {"measurement": "content succinyloxypentamidin", "setting": "[2]; 70° C., 0 days", "value": "1.0 ± 0.02", "unit": "% area %"},
      {"measurement": "content pentamidine diamidoxime(3)", "setting": "[2]; 70° C., 1 day", "value": "0.9 ± 0.01", "unit": "% area %"},
      {"measurement": "content prodrug (1)", "setting": "[2]; 70° C., 1 day", "value": 98.0, "unit": "area %"},
      {"measurement": "content succinyloxypentamidin", "setting": "[2]; 70° C., 1 day", "value": "1.1 ± 0.03", "unit": "% area %"},
      {"measurement": "content pentamidine diamidoxime(3)", "setting": "[2]; 70° C., 2 days", "value": "1.0 ± 0.01", "unit": "% area %"},
      {"measurement": "content prodrug (1)", "setting": "[2]; 70° C., 2 days", "value": 97.6, "unit": "area %"},
      {"measurement": "content succinyloxypentamidin", "setting": "[2]; 70° C., 2 days", "value": "1.3 ± 0.20", "unit": "% area %"},
      {"measurement": "content pentamidine diamidoxime(3)", "setting": "[2]; 70° C., 4 days", "value": "1.1 ± 0.01", "unit": "% area %"},
      {"measurement": "content prodrug (1)", "setting": "[2]; 70° C., 4 days", "value": 97.9, "unit": "area %"},
      {"measurement": "content succinyloxypentamidin", "setting": "[2]; 70° C., 4 days", "value": "0.9 ± 0.01", "unit": "% area %"},
      {"measurement": "content pentamidine diamidoxime(3)", "setting": "[2]; 70° C., 7 days", "value": "1.5 ± 0.13", "unit": "% area %"},
      {"measurement": "content prodrug (1)", "setting": "[2]; 70° C., 7 days", "value": 97.4, "unit": "area %"},
      {"measurement": "content succinyloxypentamidin", "setting": "[2]; 70° C., 7 days", "value": "1.1 ± 0.26", "unit": "% area %"},
      {"measurement": "content pentamidine diamidoxime(3)", "setting": "[2]; room temperature, 0 months", "value": "0.4 ± 0.01", "unit": "% area %"},
      {"measurement": "content prodrug (1)", "setting": "[2]; room temperature, 0 months", "value": 98.4, "unit": "area %"},
      {"measurement": "content succinyloxypentamidine", "setting": "[2]; room temperature, 0 months", "value": "1.0 ± 0.02", "unit": "% area %"},
      {"measurement": "content pentamidine diamidoxime(3)", "setting": "[2]; room temperature, 0.5 months", "value": "0.5 ± 0.01", "unit": "% area %"},
      {"measurement": "content prodrug (1)", "setting": "[2]; room temperature, 0.5 months", "value": 98.4, "unit": "area %"},
      {"measurement": "content succinyloxypentamidine", "setting": "[2]; room temperature, 0.5 months", "value": "1.0 ± 0.03", "unit": "% area %"},
      {"measurement": "content pentamidine diamidoxime(3)", "setting": "[2]; room temperature, 1 month", "value": "0.2 ± 0.02", "unit": "% area %"},
      {"measurement": "content prodrug (1)", "setting": "[2]; room temperature, 1 month", "value": 98.6, "unit": "area %"},
      {"measurement": "content succinyloxypentamidine", "setting": "[2]; room temperature, 1 month", "value": "1.2 ± 0.16", "unit": "% area %"},
      {"measurement": "content pentamidine diamidoxime(3)", "setting": "[2]; room temperature, 2 months", "value": "0.6 ± 0.16", "unit": "% area %"},
      {"measurement": "content prodrug (1)", "setting": "[2]; room temperature, 2 months", "value": 97.5, "unit": "area %"},
      {"measurement": "content succinyloxypentamidine", "setting": "[2]; room temperature, 2 months", "value": "1.8 ± 0.02", "unit": "% area %"},
      {"measurement": "content pentamidine diamidoxime(3)", "setting": "[2]; room temperature, 3 months", "value": "0.6 ± 0.01", "unit": "% area %"},
      {"measurement": "content prodrug (1)", "setting": "[2]; room temperature, 3 months", "value": 97.5, "unit": "area %"},
      {"measurement": "content succinyloxypentamidine", "setting": "[2]; room temperature, 3 months", "value": "1.8 ± 0.04", "unit": "% area %"},
      {"measurement": "content pentamidine diamidoxime(3)", "setting": "[2]; room temperature, 6 months", "value": "0.5 ± 0.01", "unit": "% area %"},
      {"measurement": "content prodrug (1)", "setting": "[2]; room temperature, 6 months", "value": 97.8, "unit": "area %"},
      {"measurement": "content succinyloxypentamidine", "setting": "[2]; room temperature, 6 months", "value": "1.5 ± 0.19", "unit": "% area %"},
      {"measurement": "Hydrolysis in plasma", "setting": "[3]", "value": "markedly"},
      {"measurement": "Stability in the neutral and slightly alkaline pH range", "setting": "[4]", "value": "stable"},
      {"measurement": "Hydrolysis in aqueous medium", "setting": "[4]; pH 2.0", "value": "rapid hydrolysis"},
      {"measurement": "Hydrolysis into monosuccinyl pentamidine and pentamidine diamidoxime (3)", "setting": "[4]; pH 7.4", "value": "only to a minor extent"},
      {"measurement": "Hydrolysis into monosuccinyl pentamidine and pentamidine diamidoxime (3)", "setting": "[4]; pH 9.0", "value": "only to a minor extent"},
      {"measurement": "Solubility", "setting": "[1]", "value": 7500, "unit": "µM"},
      {"measurement": "Solubility", "setting": "[1]; pH 2", "value": "hydrolysis"},
      {"measurement": "Solubility in acidic medium", "setting": "[1]; pH 2", "value": "in the mM range"},
      {"measurement": "Solubility", "setting": "[1]; pH 7.4", "value": "7500 ± 340", "unit": "µM"},
      {"measurement": "Solubility", "setting": "[1]; pH 9", "value": "10780 ± 70", "unit": "µM"},
      {"measurement": "Pentamidine formation (conversion rate)", "setting": "[5]", "value": "0.04 ± 0.01", "unit": "nmol/min/mg"},
      {"measurement": "Relative oral bioavailability", "setting": "[6]", "value": "up to 98%"}
    ]},
    {"molecule": "N/C(=N\\O)c1ccc(OCCCCCOc2ccc(/C(N)=N/O)cc2)cc1", "note": "[Pentamidine diamidoxime (3), Pentamidine diamidoxime]", "values": [
      {"measurement": "solubility at 20 min", "setting": "[1]; pH 2, aqueous buffer", "value": "4210 ± 231", "unit": "µM"},
      {"measurement": "solubility at 20 min", "setting": "[1]; pH 7.4, aqueous buffer", "value": "12 ± 1", "unit": "µM"},
      {"measurement": "solubility at 20 min", "setting": "[1]; pH 9, aqueous buffer", "value": "4 ± 1", "unit": "µM"}
    ]},
    {"molecule": "N=C(N)c1ccc(OCCCCCOc2ccc(C(=N)N)cc2)cc1", "note": "[Pentamidine]", "values": [
      {"measurement": "IC50", "setting": "[7]", "value": "0.8 to 3.2", "unit": "nM"},
      {"measurement": "IC50", "setting": "[8]", "value": "820 to 2590", "unit": "nM"},
      {"measurement": "IC50", "setting": "[9]", "value": "35 to 129", "unit": "nM"}
    ]},
    {"molecule": "CC(C)[C@H](N)C(=O)O/N=C(\\N)c1ccc(OCCCCCOc2ccc(/C(N)=N/OC(=O)[C@@H](N)C(C)C)cc2)cc1", "note": "[N,N′-bis(valoxy)pentamidine]", "values": [
      {"measurement": "Solubility", "setting": "[1]; pH 2.0", "value": ">35000", "unit": "µM"},
      {"measurement": "Solubility", "setting": "[1]; pH 7.4", "value": "157 ± 19", "unit": "µM"},
      {"measurement": "Solubility", "setting": "[1]; pH 9.0", "value": "84 ± 18", "unit": "µM"}
    ]}
  ]
}
